According to ChEMBL document CHEMBL1143075, “Taxanes from Shells and Leaves of Corylus avellana” (2008):

Tested on: SK-MES-1
Assay: Inhibition of metaphase to anaphase transition in human SKMes1 cells at 10 nM
Type: functional

## CC(=O)O[C@H]1C(=O)[C@@]2(C)[C@H]([C@H](OC(=O)c3ccccc3)[C@]3(O)C[C@H](OC(=O)[C@H](O)[C@@H](NC(=O)c4ccccc4)c4ccccc4)C(C)=C1C3(C)C)[C@]1(OC(C)=O)CO[C@@H]1C[C@@H]2O [PACLITAXEL]
  Ratio: 0.026
